Results reported in US20110105515A1, “TARGETING THE ONCOPROTEIN NUCLEOPHOSMIN” (President and Fellows of Harvard College, priority 2007, published 2011).

Assays:
SR = SR (Leukemia), 48 hours, SRB
NCI-H226 = NCI-H226 (Non-Small Cell Lung Cancer), 48 hours, SRB
NCI-H522 = NCI-H522 (Non-Small Cell Lung Cancer), 48 hours, SRB
COLO 205 = COLO 205 (Colon Cancer), 48 hours, SRB
HCC-2998 = HCC-2998 (Colon Cancer), 48 hours, SRB
HCT-116 = HCT-116 (Colon Cancer), 48 hours, SRB
HT29 = HT29 (Colon Cancer), 48 hours, SRB
SW-620 = SW-620 (Colon Cancer), 48 hours, SRB
SF-268 = SF-268 (CNS Cancer), 48 hours, SRB
SNB-75 = SNB-75 (CNS Cancer), 48 hours, SRB
MALME-3M = MALME-3M (Melanoma), 48 hours, SRB
M14 = M14 (Melanoma), 48 hours, SRB
SK-MEL-2 = SK-MEL-2 (Melanoma), 48 hours, SRB
SK-MEL-28 = SK-MEL-28 (Melanoma), 48 hours, SRB
IGROV1 = IGROV1 (Ovarian Cancer), 48 hours, SRB
786-0 = 786-0 (Renal Cancer), 48 hours, SRB
A498 = A498 (Renal Cancer), 48 hours, SRB
TK-10 = TK-10 (Renal Cancer), 48 hours, SRB
PC-3 = PC-3 (Prostate Cancer), 48 hours, SRB
DU-145 = DU-145 (Prostate Cancer), 48 hours, SRB
NCI/ADR-RES = NCI/ADR-RES (Breast Cancer), 48 hours, SRB
MDA-MB-231/ATCC = MDA-MB-231/ATCC (Breast Cancer), 48 hours, SRB
MDA-MB-435 = MDA-MB-435 (Breast Cancer), 48 hours, SRB
BT-549 = BT-549 (Breast Cancer), 48 hours, SRB
MDA-MB-468 = MDA-MB-468 (Breast Cancer), 48 hours, SRB

CN(C)c1cccc2c(S(=O)(=O)NCCCCCCCCCCOc3ccc4c(c3)[N+]([O-])=C3C4=C[C@@]45NC(=O)C6(CCCN6C4=O)CC5C3(C)C)cccc12 (some centres unmarked) [Dansyl Analogue] showed a GI50 (SR) of 371 nM, a TGI (SR) of 1940 nM and a CC50 (SR; read-out: LC50) of 23700 nM. For the same molecule, the GI50 (NCI-H226) was 1030 nM, the TGI (NCI-H226) was 3030 nM and the CC50 (NCI-H226; read-out: LC50) was 8930 nM. For the same molecule, the GI50 (NCI-H522) was 260 nM, the TGI (NCI-H522) was 857 nM and the CC50 (NCI-H522; read-out: LC50) was 8890 nM. It also gave a GI50 (COLO 205) of 328 nM, a TGI (COLO 205) of 1140 nM and a CC50 (COLO 205; read-out: LC50) of 3860 nM. The GI50 (HCC-2998) was 946 nM, the TGI (HCC-2998) was 2320 nM and the CC50 (HCC-2998; read-out: LC50) was 5490 nM. For the same molecule, the GI50 (HCT-116) was 349 nM, the TGI (HCT-116) was 1150 nM and the CC50 (HCT-116; read-out: LC50) was 5980 nM. The GI50 (HT29) was 454 nM, the TGI (HT29) was 1510 nM and the CC50 (HT29; read-out: LC50) was 3960 nM. It also gave a GI50 (SW-620) of 266 nM, a GI50 (SF-268) of 282 nM and a TGI (SF-268) of 853 nM. The CC50 (SF-268; read-out: LC50) was 3690 nM, the GI50 (SNB-75) was 273 nM and the TGI (SNB-75) was 930 nM. For the same molecule, the CC50 (SNB-75; read-out: LC50) was 3430 nM, the GI50 (MALME-3M) was 426 nM and the TGI (MALME-3M) was 2110 nM. The GI50 (M14) was 423 nM, the TGI (M14) was 2030 nM and the CC50 (M14; read-out: LC50) was 13600 nM. For the same molecule, the GI50 (SK-MEL-2) was 1070 nM, the TGI (SK-MEL-2) was 3230 nM and the CC50 (SK-MEL-2; read-out: LC50) was 9820 nM. The GI50 (SK-MEL-28) was 282 nM, the TGI (SK-MEL-28) was 678 nM and the GI50 (IGROV1) was 272 nM. For the same molecule, the TGI (IGROV1) was 695 nM, the CC50 (IGROV1; read-out: LC50) was 3390 nM and the GI50 (786-0) was 325 nM. The TGI (786-0) was 1070 nM, the CC50 (786-0; read-out: LC50) was 5210 nM and the GI50 (A498) was 250 nM. It also gave a TGI (A498) of 1010 nM, a CC50 (A498; read-out: LC50) of 4400 nM and a GI50 (TK-10) of 716 nM. It also gave a TGI (TK-10) of 2810 nM, a CC50 (TK-10; read-out: LC50) of 9660 nM and a GI50 (PC-3) of 334 nM. It also gave a TGI (PC-3) of 1820 nM, a CC50 (PC-3; read-out: LC50) of 41700 nM and a GI50 (DU-145) of 271 nM. The TGI (DU-145) was 706 nM, the CC50 (DU-145; read-out: LC50) was 2450 nM and the GI50 (NCI/ADR-RES) was 28200 nM. For the same molecule, the TGI (NCI/ADR-RES) was >100000 nM, the CC50 (NCI/ADR-RES; read-out: LC50) was > 100000 nM and the GI50 (MDA-MB-231/ATCC) was 242 nM. The TGI (MDA-MB-231/ATCC) was 584 nM, the CC50 (MDA-MB-231/ATCC; read-out: LC50) was 40500 nM and the GI50 (MDA-MB-435) was 382 nM. It also gave a TGI (MDA-MB-435) of 1920 nM, a CC50 (MDA-MB-435; read-out: LC50) of 23100 nM and a GI50 (BT-549) of 515 nM. The TGI (BT-549) was 6730 nM, the CC50 (BT-549; read-out: LC50) was > 100000 nM and the GI50 (MDA-MB-468) was 202 nM. The TGI (MDA-MB-468) was 436 nM and the CC50 (MDA-MB-468; read-out: LC50) was 941 nM.
